From PubChem BioAssay (NCI) come the findings set out here.

SMILES strings stand for the structures.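 How tested: cells in 96-well plates exposed to compound for 48 hours at five concentrations. GI50 marks 50% less growth. The concentration for full growth arrest is given as TGI.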 Where only a bound is given, the exact number is not on record here.

Test systems include DU-145 prostate; OVCAR-3 ovarian; OVCAR-8 ovarian; NCI-H460 lung; SNB-75 CNS; HCT-116 colon; ACHN renal; MALME-3M melanoma; SW-620 colon; SN12C renal.
What all share (assay): inhibition of tumour cell growth, NCI panel, 48 h

Consider `CNC(=S)NC(=O)c1c(Cl)n(C(=O)OC(C)(C)C)c2ccccc12`, for which the GI50 with DU-145 prostate was 94.2 µM; with OVCAR-3 ovarian, 38.1 µM; in the experiment with OVCAR-8 ovarian, 89.1 µM; in the experiment on NCI-H460 lung, 48.6 µM; in the experiment on SNB-75 CNS, 96 µM; with HCT-116 colon, 38.5 µM. The GI50 in the experiment on ACHN renal is 89.6 µM; in the experiment on MALME-3M melanoma, more than 100 µM; in the experiment with SW-620 colon, 79.2 µM; in the experiment with SN12C renal, 72.8 µM. The TGI in the experiment with DU-145 prostate, in the experiment with OVCAR-3 ovarian, in the experiment with OVCAR-8 ovarian, with NCI-H460 lung, in the experiment with SNB-75 CNS and with HCT-116 colon was more than 100 µM each time. In addition, the TGI with ACHN renal, in the experiment on MALME-3M melanoma, in the experiment with SW-620 colon and in the experiment on SN12C renal was more than 100 µM in each case.

As to `Cc1ccc(Cc2cnc(NC(=O)/C=C/c3cccc(C)c3)s2)cc1`, the GI50 in the experiment on DU-145 prostate is 0.395 µM; in the experiment with OVCAR-3 ovarian it was 0.0634 µM; in the experiment with OVCAR-8 ovarian, 0.447 µM; in the experiment with NCI-H460 lung, 0.064 µM; in the experiment on SNB-75 CNS it was 0.104 µM; in the experiment on HCT-116 colon, 0.0746 µM. Besides, the GI50 in the experiment with ACHN renal was 0.278 µM; with MALME-3M melanoma it was 0.19 µM; with SW-620 colon, 0.0731 µM; in the experiment with SN12C renal it was 0.393 µM. The TGI with DU-145 prostate is more than 66.3 µM; with OVCAR-3 ovarian, 0.725 µM; with OVCAR-8 ovarian, more than 44.5 µM; in the experiment with NCI-H460 lung, 11.8 µM; with SNB-75 CNS it was 0.845 µM; with HCT-116 colon it was 2.4 µM. The TGI in the experiment on ACHN renal is 4.66 µM; with MALME-3M melanoma it was 51.9 µM; in the experiment on SW-620 colon, more than 100 µM; in the experiment on SN12C renal, more than 56 µM.

Consider `C=C1C(=O)O[C@H]2[C@H]1CC/C(COC(=O)c1cc3ccccc3o1)=C\CC[C@@]1(C)O[C@@H]21`, for which the GI50 was 1.18 µM in the experiment with DU-145 prostate; 0.485 µM in the experiment on OVCAR-3 ovarian; 2.43 µM in the experiment on OVCAR-8 ovarian; 2 µM with NCI-H460 lung; 1.34 µM with SNB-75 CNS; 0.32 µM in the experiment on HCT-116 colon. Moreover, the GI50 in the experiment on ACHN renal is 1.44 µM; in the experiment with MALME-3M melanoma, 1.66 µM; in the experiment on SW-620 colon, 0.662 µM; in the experiment on SN12C renal, 1.78 µM. For the same compound, the TGI amounted to 2.45 µM in the experiment with DU-145 prostate; 1.72 µM with OVCAR-3 ovarian; 7.63 µM in the experiment with OVCAR-8 ovarian; 4.51 µM with NCI-H460 lung; 3.18 µM in the experiment on SNB-75 CNS; 1.3 µM with HCT-116 colon. Moreover, the TGI in the experiment with ACHN renal stood at 2.76 µM; with MALME-3M melanoma it was 3.27 µM; in the experiment with SW-620 colon it was 2.49 µM; with SN12C renal, 4.12 µM.

With `C[C@@H](O)[C@H](NC(=O)N[C@@H](CC(N)=O)c1nc([C@@H](N)CO)no1)C(=O)O`, the GI50 in the experiment on DU-145 prostate, in the experiment with OVCAR-3 ovarian, in the experiment with OVCAR-8 ovarian, with NCI-H460 lung, in the experiment with SNB-75 CNS and in the experiment on HCT-116 colon was more than 100 µM in each case. In addition, the GI50 in the experiment with ACHN renal, with MALME-3M melanoma, in the experiment on SW-620 colon and in the experiment with SN12C renal was more than 100 µM in each case. Also, the TGI in the experiment on DU-145 prostate, in the experiment on OVCAR-3 ovarian, with OVCAR-8 ovarian, with NCI-H460 lung, with SNB-75 CNS and with HCT-116 colon was more than 100 µM throughout. Moreover, the TGI with ACHN renal, in the experiment on MALME-3M melanoma, in the experiment with SW-620 colon and with SN12C renal was more than 100 µM in each case.

For `NC[C@H]1Nc2ccccc2[C@@H](O)C1O` (stereo not given in full), the TGI in the experiment on DU-145 prostate, in the experiment with OVCAR-3 ovarian, in the experiment on OVCAR-8 ovarian, in the experiment with NCI-H460 lung, with SNB-75 CNS and in the experiment with HCT-116 colon was more than 100 µM throughout. The TGI in the experiment on ACHN renal, in the experiment on MALME-3M melanoma, with SW-620 colon and in the experiment with SN12C renal was more than 100 µM in each case.

With `O=C1CC(=O)N(C(=O)c2nn(-c3ccc(Cl)cc3)cc2O)N1`, the GI50 with DU-145 prostate is 0.923 µM; with OVCAR-3 ovarian it was 1.31 µM; with OVCAR-8 ovarian it was 0.636 µM; in the experiment with NCI-H460 lung, 0.345 µM; with SNB-75 CNS it was 0.242 µM; in the experiment on HCT-116 colon, 0.34 µM. Also, the GI50 with ACHN renal is 0.544 µM; with MALME-3M melanoma, 0.703 µM; in the experiment on SW-620 colon it was 2.19 µM; with SN12C renal, 0.494 µM. The TGI was more than 100 µM with DU-145 prostate; 6.16 µM in the experiment with OVCAR-3 ovarian; more than 100 µM in the experiment on OVCAR-8 ovarian; more than 100 µM in the experiment on NCI-H460 lung; more than 100 µM with SNB-75 CNS; more than 100 µM in the experiment with HCT-116 colon. Moreover, the TGI in the experiment with ACHN renal is more than 100 µM; with MALME-3M melanoma, 46.5 µM; with SW-620 colon, more than 100 µM; with SN12C renal, more than 100 µM.

For the compound `O=c1cc(N2CCN(CCCCCOc3cc(O)c4c(=O)cc(-c5ccccc5)oc4c3)CC2)c2ccccc2o1`, the GI50 with DU-145 prostate was 89 µM; in the experiment with OVCAR-3 ovarian, more than 100 µM; with OVCAR-8 ovarian, more than 100 µM; in the experiment with NCI-H460 lung, more than 100 µM; in the experiment on SNB-75 CNS it was more than 100 µM; in the experiment with HCT-116 colon it was 25.4 µM. Moreover, the GI50 was more than 100 µM with ACHN renal, 39.2 µM in the experiment with MALME-3M melanoma, more than 100 µM in the experiment with SW-620 colon and 45.4 µM in the experiment on SN12C renal. Further, the TGI with DU-145 prostate, in the experiment on OVCAR-3 ovarian, in the experiment with OVCAR-8 ovarian, in the experiment with NCI-H460 lung, in the experiment on SNB-75 CNS and in the experiment with HCT-116 colon was more than 100 µM throughout. The TGI with ACHN renal, with MALME-3M melanoma, with SW-620 colon and with SN12C renal was more than 100 µM throughout.

As to `COc1cc(N2CCC(N3CCN(C)CC3)CC2)ccc1Nc1ncnc(Nc2ccccc2S(=O)(=O)C(C)C)n1`, the GI50 is 5.32 µM with DU-145 prostate; 7.33 µM with OVCAR-3 ovarian; 3.52 µM in the experiment on OVCAR-8 ovarian; 7.24 µM with NCI-H460 lung; 3.63 µM with SNB-75 CNS; 4.94 µM in the experiment on HCT-116 colon. The GI50 in the experiment with ACHN renal is 2.38 µM; in the experiment with MALME-3M melanoma, 3.12 µM; in the experiment on SW-620 colon it was 3.68 µM; with SN12C renal, 2.89 µM. Also, the TGI was found to be 20.9 µM in the experiment on DU-145 prostate; 28.1 µM in the experiment on OVCAR-3 ovarian; 21.3 µM in the experiment on OVCAR-8 ovarian; 25.6 µM in the experiment on NCI-H460 lung; 15.9 µM in the experiment with SNB-75 CNS; 22.7 µM in the experiment on HCT-116 colon. For the same compound, the TGI amounted to 14.8 µM with ACHN renal, 20.2 µM in the experiment with MALME-3M melanoma, 39.5 µM in the experiment on SW-620 colon and 29.8 µM in the experiment with SN12C renal.
